From US20070015828A1 (Wyeth, priority 2005, published 2007)

Legend:
[1] = system: CACO-2 cells; experiment: Permeability assessment, HTS-24 CACO-2 model; format: in vitro ADME
Protocol: The rate of drug transport through the CACO-2 cells was determined as the Apparent Permeability Coefficient according to the following formula:
Papp=AQ X Rv cm.s- AT 60.A.Co
ΔT=Change in time (minutes)
Co=Initial concn in the donor chamber (mM.cm^−3)
A=Surface area of membrane (cm^2)
60=Conversion factor to give cm.s^−1
Rv=volume of receiver compartment.
Transepithelial electrical resistance (TER) was calculated from resistance measurements according to the following formula: TER=(R[cells+filter+medium])−(R[filter+medium])×cell area.
Apparent permeability rates were interpreted as follows. […] Apparent permeability values less than metoprolol or propranolol are considered to be ≦90% fa (moderate permeability classification). Apparent permeability values of <10 nms^−1 are considered to be ≦50% fa (low permeability classification). TER values of <120 ohms cm^2 indicate low monolayer integrity over the assay period.
A compound/metoprolol or propranolol ratio of <1 indicates a moderate to low permeability compound.

[2] = system: Adenosine A1; experiment: Receptor binding assay: Adenosine A1; conditions: Test Compound @ 10 1 M
[3] = molecular target: T1, Adrenergic, Alpha 1A (Rattus norvegicus, UniProt P43140); experiment: Receptor binding assay: Adrenergic Alpha 1A; conditions: Test Compound @ 10 1 M
T1 construct: Novascreen (assay provider)

[4] = system: Adrenergic, Alpha 2B; experiment: Receptor binding assay: Adrenergic Alpha 2B; conditions: Test Compound @ 10 1 M
[5] = molecular target: Adrenergic, Alpha 2C (hr) (Homo sapiens, UniProt P18825); experiment: Receptor binding assay: Adrenergic Alpha 2C; conditions: Test Compound @ 10 1 M
Sequence of Adrenergic, Alpha 2C (hr) (P18825 whole entry): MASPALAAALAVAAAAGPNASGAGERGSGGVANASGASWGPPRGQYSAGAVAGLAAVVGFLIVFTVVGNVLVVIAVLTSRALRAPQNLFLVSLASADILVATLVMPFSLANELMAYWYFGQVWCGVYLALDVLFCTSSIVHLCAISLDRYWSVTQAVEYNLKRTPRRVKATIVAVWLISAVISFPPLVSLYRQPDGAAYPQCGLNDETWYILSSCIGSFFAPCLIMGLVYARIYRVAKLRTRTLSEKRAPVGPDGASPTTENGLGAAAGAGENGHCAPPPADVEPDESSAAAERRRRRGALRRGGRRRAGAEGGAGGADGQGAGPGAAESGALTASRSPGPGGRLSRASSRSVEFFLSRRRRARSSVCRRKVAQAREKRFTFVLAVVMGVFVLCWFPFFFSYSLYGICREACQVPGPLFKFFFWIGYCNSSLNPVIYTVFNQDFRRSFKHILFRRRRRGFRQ

[6] = molecular target: T2, Benzodiazepine, peripheral (h) (Homo sapiens, UniProt P30536); experiment: Receptor binding assay: Benzodiazepine peripheral; conditions: Test Compound @ 10 1 M
T2 construct: Novascreen (assay provider)
T2 sequence (P30536 whole entry): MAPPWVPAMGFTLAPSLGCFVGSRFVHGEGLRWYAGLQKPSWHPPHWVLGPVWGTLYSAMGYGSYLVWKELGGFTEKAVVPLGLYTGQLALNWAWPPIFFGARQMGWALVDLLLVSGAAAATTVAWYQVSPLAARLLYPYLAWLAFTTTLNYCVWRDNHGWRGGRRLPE

[7] = molecular target: Cannabinoid, CB1 (hr) (Homo sapiens, UniProt P21554); experiment: Receptor binding assay: Cannabinoid CB1; conditions: Test Compound @ 10 1 M
Sequence of Cannabinoid, CB1 (hr) (P21554 whole entry): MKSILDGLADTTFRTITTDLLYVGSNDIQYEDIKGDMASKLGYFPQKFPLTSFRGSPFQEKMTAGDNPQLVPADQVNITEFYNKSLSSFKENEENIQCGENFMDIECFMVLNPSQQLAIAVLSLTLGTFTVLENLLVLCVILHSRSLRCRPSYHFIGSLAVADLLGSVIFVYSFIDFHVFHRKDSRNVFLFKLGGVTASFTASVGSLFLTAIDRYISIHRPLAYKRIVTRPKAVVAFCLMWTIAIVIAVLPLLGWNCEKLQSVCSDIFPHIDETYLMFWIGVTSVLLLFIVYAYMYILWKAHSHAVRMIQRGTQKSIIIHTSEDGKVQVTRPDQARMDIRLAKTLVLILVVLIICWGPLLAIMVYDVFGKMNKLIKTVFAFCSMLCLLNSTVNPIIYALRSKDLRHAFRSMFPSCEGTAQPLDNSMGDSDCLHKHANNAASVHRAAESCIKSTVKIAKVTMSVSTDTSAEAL

[8] = molecular target: Cannabinoid, CB2 (hr) (Homo sapiens, UniProt P34972); experiment: Receptor binding assay: Cannabinoid CB2; conditions: Test Compound @ 10 1 M
[9] = molecular target: Dopamine, D2s (hr) (Homo sapiens, UniProt P14416); experiment: Receptor binding assay: Dopamine D2s; conditions: Test Compound @ 10 1 M
Sequence of Dopamine, D2s (hr) (P14416 1-414 isoform P14416-2): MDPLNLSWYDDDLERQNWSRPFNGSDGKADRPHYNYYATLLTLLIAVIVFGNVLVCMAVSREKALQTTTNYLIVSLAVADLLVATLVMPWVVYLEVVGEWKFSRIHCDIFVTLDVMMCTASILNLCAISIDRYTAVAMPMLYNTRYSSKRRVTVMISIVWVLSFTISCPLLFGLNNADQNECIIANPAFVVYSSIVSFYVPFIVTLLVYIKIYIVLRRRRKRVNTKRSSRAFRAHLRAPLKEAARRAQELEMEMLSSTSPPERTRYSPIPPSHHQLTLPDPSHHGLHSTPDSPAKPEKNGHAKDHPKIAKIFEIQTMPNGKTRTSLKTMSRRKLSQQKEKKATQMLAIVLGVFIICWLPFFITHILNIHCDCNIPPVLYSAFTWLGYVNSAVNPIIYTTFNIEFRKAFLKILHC

[10] = molecular target: Dopamine, D3 (hr) (Homo sapiens, UniProt P35462); experiment: Receptor binding assay: Dopamine D3; conditions: Test Compound @ 10 1 M
[11] = system: Glutamate, AMPA Site; experiment: Receptor binding assay: Glutamate AMPA site; conditions: Test Compound @ 10 1 M
[12] = system: Glutamate, Kainate Site; experiment: Receptor binding assay: Glutamate Kainate site; conditions: Test Compound @ 10 1 M
[13] = system: Glycine, Strychnine-sensitive; experiment: Receptor binding assay: Glycine strychnine-sensitive; conditions: Test Compound @ 10 1 M
[14] = system: Imidazoline, I1; experiment: Imidazoline binding assay: I1; conditions: Test Compound @ 10 1 M
[15] = system: Imidazoline, I2 central; experiment: Imidazoline binding assay: I2 central; conditions: Test Compound @ 10 1 M
[16] = molecular target: T3, Muscarinic, M1 (hr) (Homo sapiens, UniProt P11229); experiment: Receptor binding assay: Muscarinic M1; conditions: Test Compound @ 10 1 M
T3 construct: Novascreen (contract assay)

[17] = molecular target: T4, Muscarinic, M2 (hr) (Homo sapiens, UniProt P08172); experiment: Receptor binding assay: Muscarinic M2; conditions: Test Compound @ 10 1 M
T4 construct: Novascreen (contract assay)
T4 sequence (P08172 whole entry): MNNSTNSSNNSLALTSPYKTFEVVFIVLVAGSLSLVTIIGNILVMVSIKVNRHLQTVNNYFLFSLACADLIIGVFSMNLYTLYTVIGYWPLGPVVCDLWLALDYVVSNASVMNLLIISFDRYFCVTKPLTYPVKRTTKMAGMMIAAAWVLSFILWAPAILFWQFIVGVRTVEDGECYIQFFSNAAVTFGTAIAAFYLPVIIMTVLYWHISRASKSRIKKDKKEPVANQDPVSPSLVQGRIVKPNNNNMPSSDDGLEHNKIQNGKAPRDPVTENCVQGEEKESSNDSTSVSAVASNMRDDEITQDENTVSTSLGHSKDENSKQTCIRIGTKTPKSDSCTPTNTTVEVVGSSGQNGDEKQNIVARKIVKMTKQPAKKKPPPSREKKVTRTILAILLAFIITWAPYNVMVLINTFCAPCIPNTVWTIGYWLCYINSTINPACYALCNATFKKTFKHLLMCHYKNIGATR

[18] = molecular target: T5, Opiate, Delta 2 (hr) (Homo sapiens, UniProt P41143); experiment: Receptor binding assay: Opiate Delta 2; conditions: Test Compound @ 10 1 M
T5 construct: Novascreen (contract assay)

[19] = molecular target: T6, Opiate, Kappa (hr) (Homo sapiens, UniProt P41145); experiment: Receptor binding assay: Opiate Kappa; conditions: Test Compound @ 10 1 M
T6 construct: Novascreen (contract assay)
T6 sequence (P41145 whole entry): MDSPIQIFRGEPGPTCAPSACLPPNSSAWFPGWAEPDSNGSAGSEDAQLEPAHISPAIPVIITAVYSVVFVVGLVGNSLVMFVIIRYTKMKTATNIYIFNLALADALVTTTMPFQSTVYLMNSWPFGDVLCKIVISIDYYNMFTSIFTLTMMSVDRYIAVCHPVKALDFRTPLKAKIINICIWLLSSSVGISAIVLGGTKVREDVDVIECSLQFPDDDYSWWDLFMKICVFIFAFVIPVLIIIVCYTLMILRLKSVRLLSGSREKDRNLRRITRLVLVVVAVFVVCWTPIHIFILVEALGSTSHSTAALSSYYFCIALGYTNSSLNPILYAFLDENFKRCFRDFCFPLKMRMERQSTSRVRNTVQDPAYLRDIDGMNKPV

[20] = molecular target: T7, Opiate, Mu (hr) (Homo sapiens, UniProt P35372); experiment: Receptor binding assay: Opiate Mu; conditions: Test Compound @ 10 1 M
T7 construct: Novascreen (contract assay)
T7 sequence (P35372 whole entry): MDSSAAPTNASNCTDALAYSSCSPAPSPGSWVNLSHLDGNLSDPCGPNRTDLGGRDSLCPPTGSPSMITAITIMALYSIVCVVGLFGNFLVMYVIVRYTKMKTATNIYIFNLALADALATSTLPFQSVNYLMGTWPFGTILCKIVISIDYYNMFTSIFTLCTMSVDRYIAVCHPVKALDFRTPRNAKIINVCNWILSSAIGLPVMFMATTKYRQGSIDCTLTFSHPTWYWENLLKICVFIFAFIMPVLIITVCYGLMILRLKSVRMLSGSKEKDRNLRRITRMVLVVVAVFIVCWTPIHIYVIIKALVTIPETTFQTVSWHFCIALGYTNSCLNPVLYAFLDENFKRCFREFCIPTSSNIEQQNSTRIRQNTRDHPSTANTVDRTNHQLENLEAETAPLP

[21] = molecular target: T8, Serotonin Transporter (Homo sapiens, UniProt P31645); experiment: Serotonin transporter (human) binding assay
T8 construct: Novascreen (contract assay)
T8 sequence (P31645 whole entry): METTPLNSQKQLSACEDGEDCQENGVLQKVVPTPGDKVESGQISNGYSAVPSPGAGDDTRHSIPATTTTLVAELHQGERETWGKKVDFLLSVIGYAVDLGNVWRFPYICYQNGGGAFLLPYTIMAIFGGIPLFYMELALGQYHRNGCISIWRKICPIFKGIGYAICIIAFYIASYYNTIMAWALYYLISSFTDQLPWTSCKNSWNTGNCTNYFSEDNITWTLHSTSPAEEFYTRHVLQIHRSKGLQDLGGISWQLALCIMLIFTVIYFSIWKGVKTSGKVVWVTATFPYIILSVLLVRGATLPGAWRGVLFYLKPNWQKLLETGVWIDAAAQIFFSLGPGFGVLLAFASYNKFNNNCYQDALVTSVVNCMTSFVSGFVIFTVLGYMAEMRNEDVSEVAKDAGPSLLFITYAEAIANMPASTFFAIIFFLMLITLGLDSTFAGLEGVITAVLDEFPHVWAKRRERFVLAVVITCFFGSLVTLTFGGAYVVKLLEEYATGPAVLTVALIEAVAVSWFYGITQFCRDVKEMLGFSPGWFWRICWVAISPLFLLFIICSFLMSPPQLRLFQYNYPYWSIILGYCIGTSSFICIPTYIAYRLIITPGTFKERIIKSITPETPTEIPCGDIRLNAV

[22] = system: Serotonin, 5HT1, non-selective; experiment: Receptor binding assay: Serotonin 5HT1 non-selective; conditions: Test Compound @ 10 1 M
[23] = molecular target: T9, Serotonin, 5HT1D (h) (Homo sapiens, UniProt P28221); experiment: Receptor binding assay: Serotonin 5HT1D; conditions: Test Compound @ 10 1 M
T9 construct: Novascreen (contract assay)
T9 sequence (P28221 whole entry): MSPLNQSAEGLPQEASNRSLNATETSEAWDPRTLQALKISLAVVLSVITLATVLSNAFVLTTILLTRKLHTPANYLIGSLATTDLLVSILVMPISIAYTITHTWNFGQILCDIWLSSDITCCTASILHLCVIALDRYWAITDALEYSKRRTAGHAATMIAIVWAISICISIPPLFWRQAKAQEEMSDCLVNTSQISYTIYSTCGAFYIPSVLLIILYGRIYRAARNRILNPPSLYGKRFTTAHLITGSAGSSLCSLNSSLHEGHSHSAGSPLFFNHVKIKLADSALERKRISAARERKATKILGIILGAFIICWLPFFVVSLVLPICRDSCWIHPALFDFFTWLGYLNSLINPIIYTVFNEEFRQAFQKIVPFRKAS

[24] = molecular target: T10, Serotonin, 5HT2A (h) (Homo sapiens, UniProt P28223); experiment: Receptor binding assay: Serotonin 5HT2A; conditions: Test Compound @ 10 1 M
T10 construct: Novascreen (contract assay)
T10 sequence (P28223 whole entry): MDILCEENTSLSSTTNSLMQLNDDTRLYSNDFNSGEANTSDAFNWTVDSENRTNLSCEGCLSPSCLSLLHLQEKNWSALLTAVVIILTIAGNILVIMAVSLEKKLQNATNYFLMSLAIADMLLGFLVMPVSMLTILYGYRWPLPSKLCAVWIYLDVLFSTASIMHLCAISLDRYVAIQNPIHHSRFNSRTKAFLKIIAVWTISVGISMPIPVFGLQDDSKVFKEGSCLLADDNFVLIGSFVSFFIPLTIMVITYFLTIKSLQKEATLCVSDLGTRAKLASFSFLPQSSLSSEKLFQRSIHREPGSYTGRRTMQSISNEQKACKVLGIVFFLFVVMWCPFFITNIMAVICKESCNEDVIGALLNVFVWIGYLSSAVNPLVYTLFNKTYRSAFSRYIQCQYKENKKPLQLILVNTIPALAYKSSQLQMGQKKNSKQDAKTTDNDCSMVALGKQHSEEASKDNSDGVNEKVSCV

[25] = system: Serotonin, 5HT4; experiment: Receptor binding assay: Serotonin 5HT4; conditions: Test Compound @ 10 1 M
[26] = molecular target: T11, Serotonin, 5HT5A (hr) (Homo sapiens, UniProt P47898); experiment: Receptor binding assay: Serotonin 5HT5A; conditions: Test Compound @ 10 1 M
T11 construct: Novascreen (contract assay)
T11 sequence (P47898 whole entry): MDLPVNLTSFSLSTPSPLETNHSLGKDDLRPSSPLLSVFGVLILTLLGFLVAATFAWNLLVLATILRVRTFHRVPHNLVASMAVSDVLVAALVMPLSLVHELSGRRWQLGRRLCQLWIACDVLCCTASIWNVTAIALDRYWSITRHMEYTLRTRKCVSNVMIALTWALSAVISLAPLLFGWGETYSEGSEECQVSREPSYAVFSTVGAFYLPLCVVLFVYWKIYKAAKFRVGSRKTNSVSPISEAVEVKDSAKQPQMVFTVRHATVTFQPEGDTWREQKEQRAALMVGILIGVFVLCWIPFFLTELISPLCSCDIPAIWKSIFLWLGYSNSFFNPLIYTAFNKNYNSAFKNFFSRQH

[27] = system: Sigma 1; experiment: Receptor binding assay: Sigma 1; conditions: Test Compound @ 10 1 M
[28] = In vitro metabolism in hepatic microsomes, dog; format: in vitro ADME; conditions: male dogs, read-out: t1/2 in hepatic microsomes
Protocol: (§1) In vitro metabolism of 1-[2-dimethylamino-1-(4-phenol)ethyl]-cis-1,4-cyclohexandiol was conducted in the hepatic microsomes of Sprague-Dawley rats, male dogs, male monkeys and mixed male and female humans to characterize metabolic stability and identification of metabolites. 1-[2-dimethylamino-1-(4-phenol)ethyl]-cis-1,4-cyclohexandiol was stable (t1/2>60 minutes) in hepatic microsomes indicating Phase I and II metabolism was minimal in all species.

[29] = In vitro metabolism in hepatic microsomes, monkey; format: in vitro ADME; conditions: male monkeys, read-out: t1/2 in hepatic microsomes
Protocol: as §1

[30] = system: rat hot plate assay; experiment: Rat hot plate assay (acute pain); format: in vivo; conditions: up to 30 mg/kg po

CN(C)CC(c1ccc(O)cc1)C1(O)CCC(O)CC1 (stereo not drawn) [1-[2-dimethylamino-1-(4-phenol)ethyl]-cis-1,4-cyclohexandiol]
efflux activity ([1]; CACO-2, from B:A ratio): no efflux activity
permeability classification ([1]; CACO-2, versus propranolol reference): high permeability
Receptor Binding % Inhibition [2]: −8.51%
inhibition at 10 µM [3]: -1.96%
Receptor Binding % Inhibition [4]: 8.60%
inhibition at 10 µM [5]: 3.06%
inhibition at 10 µM [6]: 1.65%
inhibition at 10 µM [7]: 8.11%
inhibition at 10 µM [8]: 15.7%
inhibition at 10 µM [9]: 6.17%
inhibition at 10 µM [10]: 3.36%
Receptor Binding % Inhibition [11]: 2.50%
Receptor Binding % Inhibition [12]: −0.51%
Receptor Binding % Inhibition [13]: −2.38%
Receptor Binding % Inhibition [14]: 17.43%
Receptor Binding % Inhibition [15]: 3.24%
inhibition at 10 µM [16]: -5.96%
inhibition at 10 µM [17]: 12%
inhibition at 10 µM [18]: 12.2%
inhibition at 10 µM [19]: -4.17%
inhibition at 10 µM [20]: -0.35%
inhibition at 10 µM ([21]; Serotonin Transporter, Test Compound @ 10 1 M, read-out: Receptor Binding % Inhibition): 94.5%
serotonin reuptake inhibition activity ([21]; interpretation of the binding data in words): very good
Receptor Binding % Inhibition [22]: 5.09%
inhibition at 10 µM [23]: 7.26%
inhibition at 10 µM [24]: 3.7%
Receptor Binding % Inhibition [25]: 3.98%
inhibition at 10 µM [26]: 19.9%
Receptor Binding % Inhibition [27]: 2.96%
half-life [28]: > 1 h
half-life [29]: > 1 h
effect on acute pain [30]: not found to affect acute pain
